In PubChem BioAssay (NCI):
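Assay format: 96-well plates, 48-hour exposure. TGI: total growth inhibition.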

The compounds below were run on SK-MEL-2 melanoma (assay: NCI anticancer screen, dose series, 48 h).

`Nc1ccc(-c2nc3cc(F)ccc3s2)cc1Cl` and `Oc1c(C2=NNC(c3ccc(Cl)cc3Cl)C2)ccc2ccccc12` (stereo unspecified) cannot be ordered by TGI: greater than 100 µM for the first, greater than 100 µM for the second.

With `CCCCC1=NNC(=O)C1` the TGI was greater than 100 µM.

Each compound was assayed on EKVX NSCLC (assay: NCI anticancer screen, dose series, 48 h).

`OC1[C@@H]2[C@@H](O)[C@H](O)[C@@H](O)N2C[C@@H]1O` (stereo partly specified) and `COCC1OC(Sc2ccccc2)C(O)C(OC)C1OC` (stereo unspecified) cannot be ordered by TGI: greater than 100 µM for the first, greater than 100 µM for the second.

`C=C1C(=O)C[C@H]2C(=C)C(=O)O[C@@H]2C2C1CC[C@@]2(C)O` (stereo partly specified) and `CC1(C)CC(=O)c2[nH]c3ccccc3c2CC(=O)NCCc2cn1cn2` cannot be ordered by TGI: greater than 100 µM for the first, greater than 100 µM for the second.

First: O=C(NC(Cc1c[nH]c2ccccc12)C(=O)Nc1ccc(Br)cc1)OCc1ccccc1 (stereo unspecified)
Second: COC(=O)C1=C(C)NC2=C(C(=O)c3ccccc32)C1c1cn(-c2ccccc2)nc1-c1ccccc1 (stereo unspecified)
The TGI of the first is lower: 22.3 µM for the first, greater than 100 µM for the second.

`Cc1cc(C)n2nc3nc(N)c(C#N)c(-c4ccccc4)c3c2n1` and `N#Cc1nc2ccccc2nc1N1CCN(c2ccc([N+](=O)[O-])cc2)CC1` cannot be ordered by TGI: greater than 100 µM for the first, greater than 100 µM for the second.

First: CC(C)(Cl)C(Br)CCC(C)(Cl)C(Br)CBr (stereo unspecified)
Second: CCCCC1=NNC(=O)C1
The TGI of the first is lower: 84.2 µM for the first, greater than 100 µM for the second.

Going from `O=C(NCC(=O)N1CCCC1C(=O)OC(=O)C1CCCN1C(=O)CNC(=O)OCc1ccccc1)OCc1ccccc1` (stereo unspecified) to `CC(C)CC1C(=O)NCCC(NC(=O)C(Cc2ccc(OC(C)(C)C)cc2)NC(=O)OC(C)(C)C)C(=O)NC(Cc2ccccc2)C(=O)NC(Cc2ccccc2)NC1=O` (stereo unspecified), the TGI falls from greater than 100 µM to 39.1 µM.

`COC(=O)c1cc2c3c(ccc2[nH]1)N(C(=O)c1cc2cc(OC)c(OC)c(OC)c2[nH]1)CC3CCl` (stereo unspecified) and `COC(=O)CCC1=CCC2(SC)C(=O)Nc3cccc1c32` (stereo unspecified) cannot be ordered by TGI: greater than 100 µM for the first, greater than 100 µM for the second.

`Nc1ccc(Oc2ccc(C34CC5CC6C3CC3CC4C(C5)C6(c4ccc(Oc5ccc(N)cc5)cc4)C3)cc2)cc1` and `Nc1ccc(-c2nc3cc(F)ccc3s2)cc1Cl` cannot be ordered by TGI: greater than 77.8 µM for the first, greater than 48.2 µM for the second.

`Cc1cc2c(cc1Cl)SC(NS(=O)(=O)c1ccc(Cl)cc1)=NS2(=O)=O` and `O=C1C2CC=CCC2C(=O)N1n1c(Cc2ccc(Cl)cc2)n[nH]c1=O` (stereo unspecified) cannot be ordered by TGI: greater than 100 µM for the first, greater than 100 µM for the second.

Each compound was assayed on SR leukemia (assay: NCI anticancer screen, dose series, 48 h).

`OC1[C@@H]2[C@@H](O)[C@H](O)[C@@H](O)N2C[C@@H]1O` (stereo partly specified) and `COCC1OC(Sc2ccccc2)C(O)C(OC)C1OC` (stereo unspecified) cannot be ordered by TGI: greater than 43.6 µM for the first, greater than 100 µM for the second.

`C=C1C(=O)C[C@H]2C(=C)C(=O)O[C@@H]2C2C1CC[C@@]2(C)O` (stereo partly specified) and `CC1(C)CC(=O)c2[nH]c3ccccc3c2CC(=O)NCCc2cn1cn2` cannot be ordered by TGI: greater than 100 µM for the first, greater than 100 µM for the second.

`O=C(NC(Cc1c[nH]c2ccccc12)C(=O)Nc1ccc(Br)cc1)OCc1ccccc1` (stereo unspecified) and `COC(=O)C1=C(C)NC2=C(C(=O)c3ccccc32)C1c1cn(-c2ccccc2)nc1-c1ccccc1` (stereo unspecified) cannot be ordered by TGI: 47.4 µM for the first, greater than 21.6 µM for the second.

`Cc1cc(C)n2nc3nc(N)c(C#N)c(-c4ccccc4)c3c2n1` and `N#Cc1nc2ccccc2nc1N1CCN(c2ccc([N+](=O)[O-])cc2)CC1` cannot be ordered by TGI: greater than 100 µM for the first, greater than 100 µM for the second.

First: CC(C)(Cl)C(Br)CCC(C)(Cl)C(Br)CBr (stereo unspecified)
Second: CCCCC1=NNC(=O)C1
The TGI of the first is lower: 22.2 µM for the first, greater than 100 µM for the second.

Compared with `O=C(NCC(=O)N1CCCC1C(=O)OC(=O)C1CCCN1C(=O)CNC(=O)OCc1ccccc1)OCc1ccccc1` (stereo unspecified), `CC(C)CC1C(=O)NCCC(NC(=O)C(Cc2ccc(OC(C)(C)C)cc2)NC(=O)OC(C)(C)C)C(=O)NC(Cc2ccccc2)C(=O)NC(Cc2ccccc2)NC1=O` (stereo unspecified) is lower in TGI: greater than 100 µM for the first, 72.1 µM for the second.

`COC(=O)c1cc2c3c(ccc2[nH]1)N(C(=O)c1cc2cc(OC)c(OC)c(OC)c2[nH]1)CC3CCl` (stereo unspecified) and `COC(=O)CCC1=CCC2(SC)C(=O)Nc3cccc1c32` (stereo unspecified) cannot be ordered by TGI: greater than 100 µM for the first, greater than 100 µM for the second.

`Nc1ccc(Oc2ccc(C34CC5CC6C3CC3CC4C(C5)C6(c4ccc(Oc5ccc(N)cc5)cc4)C3)cc2)cc1` and `Oc1c(C2=NNC(c3ccc(Cl)cc3Cl)C2)ccc2ccccc12` (stereo unspecified) are within 1.5-fold of each other in TGI: 40.1 µM for the first, 35 µM for the second.

Compared with `Cc1cc2c(cc1Cl)SC(NS(=O)(=O)c1ccc(Cl)cc1)=NS2(=O)=O`, `Nc1ccc(-c2nc3cc(F)ccc3s2)cc1Cl` is 3.2-fold lower in TGI: 30.4 µM for the first, 9.4 µM for the second.

Compound `O=C1C2CC=CCC2C(=O)N1n1c(Cc2ccc(Cl)cc2)n[nH]c1=O` (stereo unspecified) has a TGI greater than 100 µM.

These compounds were tested on UACC-257 melanoma (assay: NCI anticancer screen, dose series, 48 h).

`OC1[C@@H]2[C@@H](O)[C@H](O)[C@@H](O)N2C[C@@H]1O` (stereo partly specified) and `COCC1OC(Sc2ccccc2)C(O)C(OC)C1OC` (stereo unspecified) cannot be ordered by TGI: greater than 100 µM for the first, greater than 100 µM for the second.

Compared with `C=C1C(=O)C[C@H]2C(=C)C(=O)O[C@@H]2C2C1CC[C@@]2(C)O` (stereo partly specified), `CC1(C)CC(=O)c2[nH]c3ccccc3c2CC(=O)NCCc2cn1cn2` is higher in TGI: 56.1 µM for the first, greater than 100 µM for the second.

Compared with `O=C(NC(Cc1c[nH]c2ccccc12)C(=O)Nc1ccc(Br)cc1)OCc1ccccc1` (stereo unspecified), `COC(=O)C1=C(C)NC2=C(C(=O)c3ccccc32)C1c1cn(-c2ccccc2)nc1-c1ccccc1` (stereo unspecified) is higher in TGI: 23.5 µM for the first, greater than 100 µM for the second.

`Cc1cc(C)n2nc3nc(N)c(C#N)c(-c4ccccc4)c3c2n1` and `N#Cc1nc2ccccc2nc1N1CCN(c2ccc([N+](=O)[O-])cc2)CC1` cannot be ordered by TGI: greater than 100 µM for the first, greater than 100 µM for the second.

Going from `CC(C)(Cl)C(Br)CCC(C)(Cl)C(Br)CBr` (stereo unspecified) to `CCCCC1=NNC(=O)C1`, the TGI rises from 51 µM to greater than 100 µM.

Compared with `O=C(NCC(=O)N1CCCC1C(=O)OC(=O)C1CCCN1C(=O)CNC(=O)OCc1ccccc1)OCc1ccccc1` (stereo unspecified), `CC(C)CC1C(=O)NCCC(NC(=O)C(Cc2ccc(OC(C)(C)C)cc2)NC(=O)OC(C)(C)C)C(=O)NC(Cc2ccccc2)C(=O)NC(Cc2ccccc2)NC1=O` (stereo unspecified) is 2-fold lower in TGI: 52.1 µM for the first, 26.2 µM for the second.

`COC(=O)c1cc2c3c(ccc2[nH]1)N(C(=O)c1cc2cc(OC)c(OC)c(OC)c2[nH]1)CC3CCl` (stereo unspecified) and `COC(=O)CCC1=CCC2(SC)C(=O)Nc3cccc1c32` (stereo unspecified) cannot be ordered by TGI: greater than 100 µM for the first, greater than 100 µM for the second.

`Nc1ccc(Oc2ccc(C34CC5CC6C3CC3CC4C(C5)C6(c4ccc(Oc5ccc(N)cc5)cc4)C3)cc2)cc1` and `Oc1c(C2=NNC(c3ccc(Cl)cc3Cl)C2)ccc2ccccc12` (stereo unspecified) cannot be ordered by TGI: greater than 32.5 µM for the first, greater than 100 µM for the second.

`Cc1cc2c(cc1Cl)SC(NS(=O)(=O)c1ccc(Cl)cc1)=NS2(=O)=O` and `Nc1ccc(-c2nc3cc(F)ccc3s2)cc1Cl` cannot be ordered by TGI: greater than 100 µM for the first, greater than 100 µM for the second.

For `O=C1C2CC=CCC2C(=O)N1n1c(Cc2ccc(Cl)cc2)n[nH]c1=O` (stereo unspecified), the TGI was greater than 100 µM.

What follows are compounds tested on NCI-H522 lung (assay: NCI anticancer screen, dose series, 48 h).

`OC1[C@@H]2[C@@H](O)[C@H](O)[C@@H](O)N2C[C@@H]1O` (stereo partly specified) and `COCC1OC(Sc2ccccc2)C(O)C(OC)C1OC` (stereo unspecified) cannot be ordered by TGI: greater than 100 µM for the first, greater than 100 µM for the second.

Going from `C=C1C(=O)C[C@H]2C(=C)C(=O)O[C@@H]2C2C1CC[C@@]2(C)O` (stereo partly specified) to `CC1(C)CC(=O)c2[nH]c3ccccc3c2CC(=O)NCCc2cn1cn2`, the TGI rises from 41.4 µM to greater than 100 µM.

Going from `O=C(NC(Cc1c[nH]c2ccccc12)C(=O)Nc1ccc(Br)cc1)OCc1ccccc1` (stereo unspecified) to `COC(=O)C1=C(C)NC2=C(C(=O)c3ccccc32)C1c1cn(-c2ccccc2)nc1-c1ccccc1` (stereo unspecified), the TGI rises from 28.6 µM to greater than 100 µM.

`Cc1cc(C)n2nc3nc(N)c(C#N)c(-c4ccccc4)c3c2n1` and `N#Cc1nc2ccccc2nc1N1CCN(c2ccc([N+](=O)[O-])cc2)CC1` cannot be ordered by TGI: greater than 100 µM for the first, greater than 100 µM for the second.

First: CC(C)(Cl)C(Br)CCC(C)(Cl)C(Br)CBr (stereo unspecified)
Second: CCCCC1=NNC(=O)C1
The TGI of the first is lower: 35.8 µM for the first, greater than 100 µM for the second.

Going from `O=C(NCC(=O)N1CCCC1C(=O)OC(=O)C1CCCN1C(=O)CNC(=O)OCc1ccccc1)OCc1ccccc1` (stereo unspecified) to `CC(C)CC1C(=O)NCCC(NC(=O)C(Cc2ccc(OC(C)(C)C)cc2)NC(=O)OC(C)(C)C)C(=O)NC(Cc2ccccc2)C(=O)NC(Cc2ccccc2)NC1=O` (stereo unspecified), the TGI falls from greater than 100 µM to 35.4 µM.

`COC(=O)c1cc2c3c(ccc2[nH]1)N(C(=O)c1cc2cc(OC)c(OC)c(OC)c2[nH]1)CC3CCl` (stereo unspecified) and `COC(=O)CCC1=CCC2(SC)C(=O)Nc3cccc1c32` (stereo unspecified) cannot be ordered by TGI: greater than 100 µM for the first, greater than 100 µM for the second.

First: Nc1ccc(Oc2ccc(C34CC5CC6C3CC3CC4C(C5)C6(c4ccc(Oc5ccc(N)cc5)cc4)C3)cc2)cc1
Second: Oc1c(C2=NNC(c3ccc(Cl)cc3Cl)C2)ccc2ccccc12 (stereo unspecified)
The TGI of the first is lower: 47.7 µM for the first, greater than 100 µM for the second.

First: Cc1cc2c(cc1Cl)SC(NS(=O)(=O)c1ccc(Cl)cc1)=NS2(=O)=O
Second: Nc1ccc(-c2nc3cc(F)ccc3s2)cc1Cl
The TGI of the first is lower: 84.2 µM for the first, greater than 100 µM for the second.

`O=C1C2CC=CCC2C(=O)N1n1c(Cc2ccc(Cl)cc2)n[nH]c1=O` (stereo unspecified) was tested, and the TGI was greater than 100 µM.

The compounds below were run on KM12 colon (assay: NCI anticancer screen, dose series, 48 h).

`OC1[C@@H]2[C@@H](O)[C@H](O)[C@@H](O)N2C[C@@H]1O` (stereo partly specified) and `COCC1OC(Sc2ccccc2)C(O)C(OC)C1OC` (stereo unspecified) cannot be ordered by TGI: greater than 100 µM for the first, greater than 100 µM for the second.

`C=C1C(=O)C[C@H]2C(=C)C(=O)O[C@@H]2C2C1CC[C@@]2(C)O` (stereo partly specified) and `CC1(C)CC(=O)c2[nH]c3ccccc3c2CC(=O)NCCc2cn1cn2` cannot be ordered by TGI: greater than 100 µM for the first, greater than 100 µM for the second.

Going from `O=C(NC(Cc1c[nH]c2ccccc12)C(=O)Nc1ccc(Br)cc1)OCc1ccccc1` (stereo unspecified) to `COC(=O)C1=C(C)NC2=C(C(=O)c3ccccc32)C1c1cn(-c2ccccc2)nc1-c1ccccc1` (stereo unspecified), the TGI rises from 21.7 µM to greater than 100 µM.

`Cc1cc(C)n2nc3nc(N)c(C#N)c(-c4ccccc4)c3c2n1` and `N#Cc1nc2ccccc2nc1N1CCN(c2ccc([N+](=O)[O-])cc2)CC1` cannot be ordered by TGI: greater than 100 µM for the first, greater than 100 µM for the second.

`O=C(NCC(=O)N1CCCC1C(=O)OC(=O)C1CCCN1C(=O)CNC(=O)OCc1ccccc1)OCc1ccccc1` (stereo unspecified) and `CC(C)CC1C(=O)NCCC(NC(=O)C(Cc2ccc(OC(C)(C)C)cc2)NC(=O)OC(C)(C)C)C(=O)NC(Cc2ccccc2)C(=O)NC(Cc2ccccc2)NC1=O` (stereo unspecified) cannot be ordered by TGI: greater than 100 µM for the first, greater than 100 µM for the second.

`COC(=O)c1cc2c3c(ccc2[nH]1)N(C(=O)c1cc2cc(OC)c(OC)c(OC)c2[nH]1)CC3CCl` (stereo unspecified) and `Cc1cc2c(cc1Cl)SC(NS(=O)(=O)c1ccc(Cl)cc1)=NS2(=O)=O` cannot be ordered by TGI: greater than 100 µM for the first, greater than 100 µM for the second.

`Nc1ccc(Oc2ccc(C34CC5CC6C3CC3CC4C(C5)C6(c4ccc(Oc5ccc(N)cc5)cc4)C3)cc2)cc1` showed a TGI greater than 100 µM.
